The data set is described as follows: Cocaine degradation in mouse sera by mass spectrometry. It is filed as in vitro ADME. From the text: FIG. 15. Degradation of cocaine in non-immune mouse serum (NIS) and in non-immune mouse serum diluted in PBS (PBS/NIS) by mass spectrometry.
FIGS. 16A-B. Rates of cocaine degradation in (A) non-immune mouse sera and (B) 5 immune mouse sera measured by a decrease in peak area (y-axis) of the cocaine peak generated by mass-spectrometry analysis.
The kinetics of cocaine degradation in immune and non-immune mouse sera was then studied by mass spectroscopy to discern the pharmacological effects of anti-coc antibodies. Although degradation rates were nearly uniform in all non-immune mice (FIG. 16A), significant differences existed in the rates in immune mice, depending on the titer of anti-coc antibodies in the plasma (FIG. 16B).

Take `COC(=O)[C@@H]1C2CCC(C[C@@H]1OC(=O)c1ccccc1)N2C` (some centres unmarked) [cocaine]: the “rate of cocaine degradation” value (immune mouse sera, with increasing titer of anti-coc antibodies) was “degradation rates conversely decreased” and the “rate of cocaine degradation” value (non-immune mouse serum diluted in PBS versus undiluted) was “decreased rate of cocaine degradation”.

The values are drawn from patent publication US9981025B2, “Anti-drug vaccines” (priority 2009, dated 2018).
